Format in all cases: cell-based
One series addresses Nav 1.5 (Homo sapiens (Human), UniProt Q14524). Nature of the series: Nav 1.5 in vitro assay, IonWorks Quattro (IWQ) population patch-clamp. The settings on record: HEK 293 cells stably transfected with Nav 1.5; 26th pulse to -20 mV.
Series [1] concerns the target T1, Nav 1.7 (Homo sapiens (Human), UniProt Q15858). Kind of series: Nav 1.7 in vitro assay, IonWorks Quattro (IWQ) population patch-clamp. As to conditions: HEK 293 cells stably transfected with Nav 1.7; 26th pulse to -20 mV. For orientation: In patch-clamp work, channel activity is measured electrically.
Series [2] addresses T1, Nav 1.7. Kind of series: Nav 1.7 in vitro PX assay, PatchXpress whole cell voltage clamp. As to conditions: HEK 293 cells stably transfected with human Nav1.7; for IC50: partially inactivated state (20 to 50% inactivation); for inhibition at 4.9 µM: HEK293, values marked *, read-out: Nav 1.7 PX percent inhibition at 4.9 μM. The method, boiled down:
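Partially inactivated channels (20–50% inactivation at holding potential) were probed on automated patch clamp in stably transfected HEK293 cells, stepping to −10 mV for 20 msec every 10 s (0.1 Hz).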

One may read the IC50 as the concentration that inhibits the measured activity by half. Read a low IC50 as greater potency in that assay. The term inhibition denotes the percentage by which the read-out fell short of the control.

Bounds are passed on as bounds.

Chain of Nav 1.5 (Q14524 whole entry): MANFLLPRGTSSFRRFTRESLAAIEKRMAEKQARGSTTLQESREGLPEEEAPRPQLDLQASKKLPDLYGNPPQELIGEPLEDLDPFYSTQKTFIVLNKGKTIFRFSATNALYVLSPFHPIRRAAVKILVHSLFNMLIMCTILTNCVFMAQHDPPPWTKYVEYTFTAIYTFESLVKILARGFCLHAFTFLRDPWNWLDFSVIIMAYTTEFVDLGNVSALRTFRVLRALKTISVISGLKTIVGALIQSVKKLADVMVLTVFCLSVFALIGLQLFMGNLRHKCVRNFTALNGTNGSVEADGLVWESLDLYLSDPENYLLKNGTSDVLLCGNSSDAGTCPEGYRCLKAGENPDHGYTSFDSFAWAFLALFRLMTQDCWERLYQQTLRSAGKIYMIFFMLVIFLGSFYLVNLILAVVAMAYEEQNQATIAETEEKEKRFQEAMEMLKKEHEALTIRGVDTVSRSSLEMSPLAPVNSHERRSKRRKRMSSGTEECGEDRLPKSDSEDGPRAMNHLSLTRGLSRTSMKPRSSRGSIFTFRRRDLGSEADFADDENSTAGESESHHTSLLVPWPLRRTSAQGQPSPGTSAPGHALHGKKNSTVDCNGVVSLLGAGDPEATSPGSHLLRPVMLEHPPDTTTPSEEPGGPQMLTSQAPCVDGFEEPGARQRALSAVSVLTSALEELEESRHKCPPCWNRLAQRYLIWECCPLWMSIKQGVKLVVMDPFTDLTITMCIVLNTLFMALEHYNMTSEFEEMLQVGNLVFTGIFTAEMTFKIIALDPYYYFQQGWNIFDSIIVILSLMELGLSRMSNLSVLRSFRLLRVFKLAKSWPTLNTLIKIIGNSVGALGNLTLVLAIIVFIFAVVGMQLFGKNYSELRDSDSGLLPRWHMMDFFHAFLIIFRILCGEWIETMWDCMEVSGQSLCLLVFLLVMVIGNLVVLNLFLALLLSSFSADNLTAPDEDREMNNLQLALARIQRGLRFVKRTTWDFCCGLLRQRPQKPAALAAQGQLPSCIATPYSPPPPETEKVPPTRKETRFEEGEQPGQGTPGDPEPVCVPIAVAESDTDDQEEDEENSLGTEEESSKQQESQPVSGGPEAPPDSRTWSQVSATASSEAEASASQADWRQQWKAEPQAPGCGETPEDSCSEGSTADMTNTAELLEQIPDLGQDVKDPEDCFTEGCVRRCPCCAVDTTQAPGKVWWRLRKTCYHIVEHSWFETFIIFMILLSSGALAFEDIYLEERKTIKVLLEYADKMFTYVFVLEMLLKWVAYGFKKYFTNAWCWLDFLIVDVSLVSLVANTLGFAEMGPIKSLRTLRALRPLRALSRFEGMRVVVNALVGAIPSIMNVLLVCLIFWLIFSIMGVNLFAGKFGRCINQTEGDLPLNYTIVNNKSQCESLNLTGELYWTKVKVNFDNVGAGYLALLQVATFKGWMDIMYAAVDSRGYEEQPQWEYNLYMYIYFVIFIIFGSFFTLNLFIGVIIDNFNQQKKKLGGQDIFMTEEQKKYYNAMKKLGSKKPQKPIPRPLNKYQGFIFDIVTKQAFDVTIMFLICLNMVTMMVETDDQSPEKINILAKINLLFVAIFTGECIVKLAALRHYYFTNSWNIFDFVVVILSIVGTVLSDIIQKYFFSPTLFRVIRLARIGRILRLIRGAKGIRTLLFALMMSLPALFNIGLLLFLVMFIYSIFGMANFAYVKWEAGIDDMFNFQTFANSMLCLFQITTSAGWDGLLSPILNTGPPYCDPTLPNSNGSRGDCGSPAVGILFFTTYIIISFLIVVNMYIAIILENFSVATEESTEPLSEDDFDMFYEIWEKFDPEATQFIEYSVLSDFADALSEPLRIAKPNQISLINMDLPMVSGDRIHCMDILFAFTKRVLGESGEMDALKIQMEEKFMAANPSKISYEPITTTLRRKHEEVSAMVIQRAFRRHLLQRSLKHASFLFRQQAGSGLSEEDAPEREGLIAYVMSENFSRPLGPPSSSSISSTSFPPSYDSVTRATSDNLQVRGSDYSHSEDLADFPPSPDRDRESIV
T1 sequence (Q15858 whole entry): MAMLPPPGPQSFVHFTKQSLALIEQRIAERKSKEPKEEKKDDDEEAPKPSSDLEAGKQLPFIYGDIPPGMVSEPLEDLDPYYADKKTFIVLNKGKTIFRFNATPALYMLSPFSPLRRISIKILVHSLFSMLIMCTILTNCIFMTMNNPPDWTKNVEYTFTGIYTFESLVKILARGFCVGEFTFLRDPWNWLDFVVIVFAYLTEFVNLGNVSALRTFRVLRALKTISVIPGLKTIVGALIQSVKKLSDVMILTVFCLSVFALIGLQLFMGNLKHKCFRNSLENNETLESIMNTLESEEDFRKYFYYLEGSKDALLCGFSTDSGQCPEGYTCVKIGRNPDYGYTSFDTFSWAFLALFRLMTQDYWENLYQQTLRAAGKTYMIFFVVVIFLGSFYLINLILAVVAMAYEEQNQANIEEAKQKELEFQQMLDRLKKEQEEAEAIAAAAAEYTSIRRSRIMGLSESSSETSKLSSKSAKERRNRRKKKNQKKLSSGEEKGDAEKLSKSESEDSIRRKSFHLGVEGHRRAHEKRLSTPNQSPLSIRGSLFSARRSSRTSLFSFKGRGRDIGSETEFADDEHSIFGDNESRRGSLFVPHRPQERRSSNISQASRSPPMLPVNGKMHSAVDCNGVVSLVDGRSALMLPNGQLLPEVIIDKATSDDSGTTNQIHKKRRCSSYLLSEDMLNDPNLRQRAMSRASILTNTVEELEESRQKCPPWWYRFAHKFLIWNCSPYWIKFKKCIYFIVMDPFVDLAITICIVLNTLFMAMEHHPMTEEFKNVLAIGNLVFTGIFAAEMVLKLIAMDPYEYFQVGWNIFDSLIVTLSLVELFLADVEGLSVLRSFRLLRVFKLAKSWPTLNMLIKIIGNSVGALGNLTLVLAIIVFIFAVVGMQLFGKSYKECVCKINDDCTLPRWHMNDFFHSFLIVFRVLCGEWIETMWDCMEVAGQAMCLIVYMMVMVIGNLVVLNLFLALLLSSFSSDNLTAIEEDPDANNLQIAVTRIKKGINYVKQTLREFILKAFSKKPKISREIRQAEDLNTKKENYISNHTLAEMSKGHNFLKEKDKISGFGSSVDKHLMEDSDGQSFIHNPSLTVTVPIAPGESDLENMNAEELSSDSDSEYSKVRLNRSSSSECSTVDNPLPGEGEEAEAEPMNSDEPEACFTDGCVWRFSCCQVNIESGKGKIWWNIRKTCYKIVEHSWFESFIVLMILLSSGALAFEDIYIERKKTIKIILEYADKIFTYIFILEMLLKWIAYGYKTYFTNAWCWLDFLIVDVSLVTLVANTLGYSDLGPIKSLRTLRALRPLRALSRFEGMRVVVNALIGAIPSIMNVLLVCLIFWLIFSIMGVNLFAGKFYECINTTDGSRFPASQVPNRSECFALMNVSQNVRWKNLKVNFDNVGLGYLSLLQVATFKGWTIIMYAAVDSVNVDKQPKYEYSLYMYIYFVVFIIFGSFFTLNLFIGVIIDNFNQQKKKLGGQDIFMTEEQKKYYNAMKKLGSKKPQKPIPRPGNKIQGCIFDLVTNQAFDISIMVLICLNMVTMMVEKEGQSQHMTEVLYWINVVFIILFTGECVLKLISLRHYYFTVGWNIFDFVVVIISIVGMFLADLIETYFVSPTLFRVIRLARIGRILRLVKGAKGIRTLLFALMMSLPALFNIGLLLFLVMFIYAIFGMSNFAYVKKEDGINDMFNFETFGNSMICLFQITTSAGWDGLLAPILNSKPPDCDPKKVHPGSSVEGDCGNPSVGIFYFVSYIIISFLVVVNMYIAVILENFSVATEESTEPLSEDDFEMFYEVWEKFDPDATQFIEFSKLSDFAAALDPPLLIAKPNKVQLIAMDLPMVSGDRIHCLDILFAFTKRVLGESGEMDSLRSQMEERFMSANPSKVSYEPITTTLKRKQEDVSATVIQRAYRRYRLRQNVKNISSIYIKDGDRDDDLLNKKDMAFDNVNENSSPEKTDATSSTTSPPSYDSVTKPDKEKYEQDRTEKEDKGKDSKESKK

On to `COc1ccc(N2CCOc3cc(S(=O)(=O)Nc4nccs4)ccc32)cc1C#N` [Example 118, 4-(3-Cyano-4-methoxyphenyl)-N-(thiazol-2-yl)-3,4-dihydro-2H-benzo[b][1,4]oxazine-7-sulfonamide], for which the half-inhibitory concentration (IC50) is over 10000 nM on Nav 1.5, 660 nM against Nav 1.7 [1] and 18100 nM against Nav 1.7 [2].
In the same order, the values of `COc1ccc(N2CCOc3cc(S(=O)(=O)Nc4nccs4)ccc32)c(OC)c1` [Example 120, 4-(2,4-Dimethoxyphenyl)-N-(thiazol-2-yl)-3,4-dihydro-2H-benzo[b][1,4]oxazine-7-sulfonamide] are over 10000 nM, 796 nM and 2240 nM.
`O=S(=O)(Nc1nccs1)c1ccc2c(c1)OCCN2c1ccc(C(F)(F)F)nc1` [Example 122, N-(thiazol-2-yl)-4-(6-(trifluoromethyl)pyridin-3-yl)-3,4-dihydro-2H-benzo[b][1,4]oxazine-7-sulfonamide]: the IC50 on Nav 1.5 worked out at 7030 nM; at Nav 1.7 [1], 615 nM; against Nav 1.7 [2], 2900 nM.
In the same order, the values of `O=S(=O)(Nc1nccs1)c1ccc2c(c1)OCCN2c1ccc(OC(F)(F)C(F)F)cc1` [Example 123, 4-(4-(1,1,2,2-Tetrafluoroethoxy)phenyl)-N-(thiazol-2-yl)-3,4-dihydro-2H-benzo[b][1,4]oxazine-7-sulfonamide] are 5810 nM, 1070 nM and 4720 nM.
For `Cc1cc(C#N)cc(N2CCOc3cc(S(=O)(=O)Nc4nccs4)ccc32)c1` [Example 124, 4-(3-Cyano-5-methylphenyl)-N-(thiazol-2-yl)-3,4-dihydro-2H-benzo[b][1,4]oxazine-7-sulfonamide], in that order: 2330 nM, 160 nM and 2690 nM.
In the same order, the values of `O=S(=O)(Nc1nccs1)c1ccc2c(c1)OCCN2c1ccc(Cl)c(C(F)(F)F)c1` [Example 125, 4-(4-Chloro-3-(trifluoromethyl)phenyl)-N-(thiazol-2-yl)-3,4-dihydro-2H-benzo[b][1,4]oxazine-7-sulfonamide] are 6550 nM, 571 nM and 4040 nM.
Turning to `O=S(=O)(Nc1nccs1)c1ccc2c(c1)OCCN2c1ccc(C(F)(F)F)c(Cl)c1` [Example 126, 4-(3-Chloro-4-(trifluoromethyl)phenyl)-N-(thiazol-2-yl)-3,4-dihydro-2H-benzo[b][1,4]oxazine-7-sulfonamide], the values for the IC50 on Nav 1.5, against Nav 1.7 [1] and against Nav 1.7 [2] were over 10000 nM, 1240 nM and 14200 nM, respectively.
On to `O=S(=O)(Nc1nccs1)c1ccc2c(c1)OCCN2c1ccc2c(c1)OC(F)(F)O2` [Example 127, 4-(2,2-Difluorobenzo[d][1,3]dioxol-5-yl)-N-(thiazol-2-yl)-3,4-dihydro-2H-benzo[b][1,4]oxazine-7-sulfonamide], for which the IC50 on Nav 1.5 was over 10000 nM; against Nav 1.7 [1], 475 nM; at Nav 1.7 [2], 1320 nM.
For `N#Cc1ccc(OC(F)(F)F)cc1N1CCOc2cc(S(=O)(=O)Nc3nccs3)ccc21` [Example 128, 4-(2-Cyano-5-(trifluoromethoxy)phenyl)-N-(thiazol-2-yl)-3,4-dihydro-2H-benzo[b][1,4]oxazine-7-sulfonamide], in that order: 3690 nM, 69.5 nM and 912 nM.
In the same order, the values of `O=S(=O)(Nc1nccs1)c1ccc2c(c1)OCCN2c1cccc2c1OC(F)(F)O2` [Example 129, 4-(2,2-Difluorobenzo[d][1,3]dioxol-4-yl)-N-(thiazol-2-yl)-3,4-dihydro-2H-benzo[b][1,4]oxazine-7-sulfonamide] are over 10000 nM, 263 nM and 2900 nM.
For `O=S(=O)(Nc1nccs1)c1ccc2c(c1)OCCN2c1cncc(Cl)c1` [Example 130, 4-(5-Chloropyridin-3-yl)-N-(thiazol-2-yl)-3,4-dihydro-2H-benzo[b][1,4]oxazine-7-sulfonamide], in that order: 6200 nM, 635 nM and 5290 nM.
`COc1cncc(N2CCOc3cc(S(=O)(=O)Nc4nccs4)ccc32)c1` [Example 131, 4-(5-Methoxypyridin-3-yl)-N-(thiazol-2-yl)-3,4-dihydro-2H-benzo[b][1,4]oxazine-7-sulfonamide]: the IC50 is over 10000 nM against Nav 1.5, 1310 nM at Nav 1.7 [1] and 23300 nM on Nav 1.7 [2].
In the case of `Cc1cncc(C)c1N1CCOc2cc(S(=O)(=O)Nc3nccs3)ccc21` [Example 133, 4-(3,5-Dimethylpyridin-4-yl)-N-(thiazol-2-yl)-3,4-dihydro-2H-benzo[b][1,4]oxazine-7-sulfonamide], the results for the IC50 against Nav 1.5 and against Nav 1.7 [1] were over 10000 nM and 1590 nM, respectively. In addition, on Nav 1.7 [2], the inhibition at 4.9 µM was 20.2%.
Regarding `Cc1cc(N2CCOc3cc(S(=O)(=O)Nc4nccs4)ccc32)c(C)cn1` [Example 134, 4-(2,5-Dimethylpyridin-4-yl)-N-(thiazol-2-yl)-3,4-dihydro-2H-benzo[b][1,4]oxazine-7-sulfonamide], the half-maximal inhibitory concentration (IC50) was over 10000 nM at Nav 1.5, 1340 nM against Nav 1.7 [1] and 17100 nM at Nav 1.7 [2].
Regarding `Cc1ccc(C#N)c(N2CCOc3cc(S(=O)(=O)Nc4nccs4)ccc32)n1` [Example 135, 4-(3-Cyano-6-methylpyridin-2-yl)-N-(thiazol-2-yl)-3,4-dihydro-2H-benzo[b][1,4]oxazine-7-sulfonamide], the IC50 was over 10000 nM on Nav 1.5 and 2680 nM against Nav 1.7 [1]. At Nav 1.7 [2], the inhibition at 4.9 µM is 22.6%.
With `O=S(=O)(Nc1nccs1)c1ccc2c(c1)OCCN2c1ncc(F)cc1F` [Example 136, 4-(3,5-Difluoropyridin-2-yl)-N-(thiazol-2-yl)-3,4-dihydro-2H-benzo[b][1,4]oxazine-7-sulfonamide], the 50% inhibitory concentration (IC50) is over 10000 nM against Nav 1.5 and 2980 nM on Nav 1.7 [1]. Moreover, at Nav 1.7 [2], the inhibition at 4.9 µM was found to be 27.4%.
Turning to `COc1cc(C)c(N2CCOc3cc(S(=O)(=O)Nc4nccs4)ccc32)cn1` [Example 137, 4-(6-Methoxy-4-methylpyridin-3-yl)-N-(thiazol-2-yl)-3,4-dihydro-2H-benzo[b][1,4]oxazine-7-sulfonamide], the half-inhibitory concentration (IC50) on Nav 1.5 was over 10000 nM; against Nav 1.7 [1] it was 914 nM; against Nav 1.7 [2] it was 21700 nM.
For `CCOc1ccc(N2CCOc3cc(S(=O)(=O)Nc4nccs4)ccc32)cn1` [Example 138, 4-(6-Ethoxypyridin-3-yl)-N-(thiazol-2-yl)-3,4-dihydro-2H-benzo[b][1,4]oxazine-7-sulfonamide], in that order: 3830 nM, 860 nM and 11500 nM.
In the case of `COc1ccc(OC)c(N2CCOc3cc(S(=O)(=O)Nc4nccs4)ccc32)c1` [Example 139, 4-(2,5-Dimethoxyphenyl)-N-(thiazol-2-yl)-3,4-dihydro-2H-benzo[b][1,4]oxazine-7-sulfonamide], the IC50 on Nav 1.5 came to 7040 nM; against Nav 1.7 [1], 69.5 nM; at Nav 1.7 [2], 415 nM.
Consider `Cc1cc(OC(F)(F)F)ccc1N1CCOc2cc(S(=O)(=O)Nc3nccs3)ccc21` [Example 140, 4-(2-Methyl-4-(trifluoromethoxy)phenyl)-N-(thiazol-2-yl)-3,4-dihydro-2H-benzo[b][1,4]oxazine-7-sulfonamide], for which the IC50 against Nav 1.5 stood at 6600 nM; at Nav 1.7 [1], 451 nM; against Nav 1.7 [2], 1340 nM.
With `O=S(=O)(Nc1nccs1)c1ccc2c(c1)OCCN2c1ccc(-n2cccn2)cc1` [Example 141, 4-(4-(1H-pyrazol-1-yl)phenyl)-N-(thiazol-2-yl)-3,4-dihydro-2H-benzo[b][1,4]oxazine-7-sulfonamide], the IC50 on Nav 1.5 came out at 2500 nM; against Nav 1.7 [1] it was 671 nM; at Nav 1.7 [2], 6420 nM.
As for `N#Cc1cccc(Cl)c1N1CCOc2cc(S(=O)(=O)Nc3nccs3)ccc21` [Example 142, 4-(2-Chloro-6-cyanophenyl)-N-(thiazol-2-yl)-3,4-dihydro-2H-benzo[b][1,4]oxazine-7-sulfonamide], the IC50 is over 10000 nM against Nav 1.5 and 2210 nM on Nav 1.7 [1]. The inhibition at 4.9 µM at Nav 1.7 [2] turned out to be 33.9%.
Regarding `COc1cnc(N2CCOc3cc(S(=O)(=O)Nc4nccs4)ccc32)c(OC)n1` [Example 143, 4-(3,5-Dimethoxypyrazin-2-yl)-N-(thiazol-2-yl)-3,4-dihydro-2H-benzo[b][1,4]oxazine-7-sulfonamide], the IC50 is over 10000 nM against Nav 1.5, 1010 nM against Nav 1.7 [1] and 9070 nM against Nav 1.7 [2].
In the same order, the values of `COc1cnc(N2CCOc3cc(S(=O)(=O)Nc4nccs4)ccc32)c(OC)c1` [Example 144, 4-(3,5-Dimethoxypyridin-2-yl)-N-(thiazol-2-yl)-3,4-dihydro-2H-benzo[b][1,4]oxazine-7-sulfonamide] are over 10000 nM, 894 nM and 7670 nM.
In the same order, the values of `COc1ncc(C(F)(F)F)cc1N1CCOc2cc(S(=O)(=O)Nc3nccs3)ccc21` [Example 145, 4-(2-Methoxy-5-(trifluoromethyl)pyridin-3-yl)-N-(thiazol-2-yl)-3,4-dihydro-2H-benzo[b][1,4]oxazine-7-sulfonamide] are 7380 nM, 235 nM and 11800 nM.
For `Cc1cc(OC(F)F)cnc1N1CCOc2cc(S(=O)(=O)Nc3nccs3)ccc21` [Example 146, 4-(5-(Difluoromethoxy)-3-methylpyridin-2-yl)-N-(thiazol-2-yl)-3,4-dihydro-2H-benzo[b][1,4]oxazine-7-sulfonamide], in that order: 5220 nM, 416 nM and 4730 nM.

(Values after patent US9346798B2, “Dihydrobenzoxazine and tetrahydroquinoxaline sodium channel inhibitors” (AMGEN INC., priority 2012, dated 2016).)
